Data on 3 molecules can be found in the supplement of paper PMC11061612.

What all share (experiment): Bliss excess, mean over the matrix (fraction); higher = more synergy
The subject of test [1] is NCI-H2023 (Non-Small Cell Lung Carcinoma). In a few lines:
(§1)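 Bliss excess equals the observed combination effect minus the expected value EA + EB − EA·EB, where EA and EB are the effects of each agent alone. Combination Emax is the second-highest inhibition within the matrix. Inhibition was scaled from CellTiter-Glo 2.0 luminescence, with 0 set by vehicle wells and 1 by blank wells, after 72 hours of two-drug dosing of cells plated in 1536-well plates.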

Test [2] relates to GRANTA-519 (B-Cell Non-Hodgkin's Lymphoma). In a few lines:
as §1

In a further test the test system is A375 (Melanoma). In a few lines: as §1
In test [3] the test system is SNU-1 (Gastric Carcinoma). In a few lines: as §1
The test system of test [4] is Daudi (Burkitt's Lymphoma). In a few lines: as §1
Test [5] concerns NCI-H1048 (Small Cell Lung Carcinoma). An outline of the steps: as §1
Test [6] relates to JURL-MK1 (Chronic Myelogenous Leukemia). An outline of the steps: as §1
For another test, the system named is HT-144 (Melanoma). In a few lines:
as §1

Test [7] deals with HT-3 (Cervical Carcinoma). An outline of the steps: as §1
Another test has as its system NCI-H2452 (Mesothelioma). In a few lines: as §1
The subject of test [8] is C2BBe1 (Colorectal Carcinoma). An outline of the steps:
as §1

A further test concerns SK-N-DZ (Neuroblastoma). An outline of the steps: as §1
In test [9] the test system is NCI-H1435 (Non-Small Cell Lung Carcinoma). An outline of the steps: as §1
Test [10] concerns NCI-H835 (Other Solid Carcinomas). In a few lines: as §1
Test [11] relates to ATN-1 (T-Lymphoblastic Leukemia). In a few lines: as §1
For test [12], the system named is KNS-62 (Squamous Cell Lung Carcinoma). An outline of the steps:
as §1

In test [13] the test system is MDA-MB-175-VII (Breast Carcinoma). An outline of the steps:
as §1

In test [14] the test system is RS4-11 (B-Lymphoblastic Leukemia). An outline of the steps: as §1
For test [15], the system named is NCI-H2009 (Lung Adenocarcinoma). In a few lines:
as §1

For test [16], the system named is TK (B-Cell Non-Hodgkin's Lymphoma). In a few lines:
as §1

Regarding `Cc1cc2ncnn2cc1Nc1ncc2c(n1)n(C1CCOCC1)c(=O)n2C` [AZD7648] + CCN(CCO)CCCOc1ccc2c(Nc3cc(CC(=O)Nc4cccc(F)c4)[nH]n3)ncnc2c1 [AZD2811] (first compound max 10 µM, 7x7, partner max 1 µM), the Bliss excess was -0.0238 in test [1]; 0.0287 in test [2]; 0.0251 with A375 (Melanoma); 0.0214 in [3]; 0.0652 in test [4]; -0.0197 in [5]. For the same molecule, the Bliss excess was -0.0046 in test [6]; 0.0088 with HT-144 (Melanoma); 0.0276 in test [7]; 0.001 in the test with NCI-H2452 (Mesothelioma); 0.0124 in [8]; 0.088 with SK-N-DZ (Neuroblastoma). In addition, the Bliss excess in test [9] is 0.0409; in test [10], 0.0595; in test [11], -0.0768; in test [12], 0.0489; in [13], -0.0042; in [14] it was -0.0355. In addition, the figures for the Bliss excess in test [15] and in test [16] were 0.0669 and 0.0132, respectively.
For the molecule `C[C@@H](c1ccc2nccn2c1)n1nnc2ncc(-c3cnn(C)c3)nc21` [Savolitinib] + CC1(C)CCC(CN2CCN(c3ccc(C(=O)NS(=O)(=O)c4ccc(NCC5CCOCC5)c([N+](=O)[O-])c4)c(Oc4cnc5[nH]ccc5c4)c3)CC2)=C(c2ccc(Cl)cc2)C1 [Venetoclax] (first compound max 1 µM, 7x7, partner max 1 µM), the Bliss excess is -0.0161 in test [1]; -0.0822 in test [2]; -0.0463 in the test with A375 (Melanoma); -0.0821 in test [3]; -0.0988 in test [4]; -0.0419 in [5]. Besides, the Bliss excess in [6] is -0.0679; with HT-144 (Melanoma), -0.0569; in test [7], -0.0486; in the test on NCI-H2452 (Mesothelioma), -0.0714; in [8] it was -0.0759; in the test with SK-N-DZ (Neuroblastoma) it was -0.0158. Besides, the Bliss excess is -0.0034 in test [9]; -0.0355 in test [10]; -0.0192 in test [11]; -0.0616 in [12]; -0.013 in test [13]; -0.0566 in [14]. The Bliss excess is -0.041 in test [15] and -0.0258 in [16].
Regarding `Cc1cc2ncnn2cc1Nc1ncc2c(n1)n(C1CCOCC1)c(=O)n2C` [AZD7648] + CN(C)CCCOc1ccc(-c2ccc3ncc4c(c3c2)n(C2CCOCC2)c(=O)n4C)cn1 [AZD0156] (first compound max 10 µM, 7x7, partner max 1 µM), the Bliss excess was -0.0192 in [1]; 0.0266 in [2]; 0.0165 in the test with A375 (Melanoma); 0.01 in test [3]; 0.0327 in [4]; 0.0121 in [5]. Also, the Bliss excess in test [6] is -0.0184; in the test on HT-144 (Melanoma), 0.0013; in test [7], 0.0226; in the test on NCI-H2452 (Mesothelioma), -0.0457; in [8], -0.0408; with SK-N-DZ (Neuroblastoma) it was 0.038. The Bliss excess in test [9] is 0.0091; in test [10], 0.0086; in [11] it was 0.0185; in test [12] it was -0.0064; in test [13], -0.0453; in [14] it was 0.0397. The Bliss excess in test [15] was -0.0019; in [16], -0.0264.
